# The source made the active and inactive calls. The rule behind the calls is not given here.
# What was measured:
# [1] = Toxicity in CCl4-induced hepatic fibrosis C57BL/6 mouse model assessed as serum hypercalcemia at 100 ug/kg, po five times a week for 2 weeks by calcium assay kit; assay type: organism-based; conditions: in vivo, 0.1 mg/kg, 336 h, dose 100 µg/kg
# LX-2 [2] = experiment: Inhibition of TGF-beta1 induced human LX-2 cell activation assessed as inhibition of alpha-SMA expression at 0.5 uM by Western blot analysis relative to control; assay type: functional, cell-based
# LX-2 [3] = experiment: Inhibition of TGF-beta1 induced human LX-2 cell activation assessed as inhibition of collagen I expression at 0.5 uM by Western blot analysis relative to control; assay type: functional, cell-based
# Mus musculus [4] = experiment: Anti-fibrotic effect in CCl4-induced hepatic fibrosis C57BL/6 mouse model assessed as inhibition of proliferation of fibrous tissue at 500 ug/kg, po five times a week for 2 weeks by Hematoxylin-Eosin (H&E) staining based assay; assay type: functional, organism-based; conditions: dose 500.0 µg/kg
# Mus musculus [5] = experiment: Anti-fibrotic effect in CCl4-induced hepatic fibrosis C57BL/6 mouse model assessed as inhibition of collagen deposition at 500 ug/kg, po five times a week for 2 weeks by Hematoxylin-Eosin (H&E) staining based assay; assay type: functional, organism-based; conditions: dose 500.0 µg/kg
# Mus musculus [6] = experiment: Anti-fibrotic effect in CCl4-induced hepatic fibrosis C57BL/6 mouse model assessed as decrease in inflammatory cell infiltration at 500 ug/kg, po five times a week for 2 weeks by Masson's Trichrome staining based assay; assay type: functional, organism-based; conditions: dose 500.0 µg/kg
# [7] = biological target: T1, Vitamin D3 receptor (Homo sapiens) (UniProt P11473); experiment: Agonist activity at Vitamin D receptor in human LX-2 cells assessed as transcriptional activity by measuring induction of CYP24A expression at 0.5 uM by RT-qPCR analysis relative to control; assay type: cell-based; conditions: filed as agonist
# T1 sequence (whole entry): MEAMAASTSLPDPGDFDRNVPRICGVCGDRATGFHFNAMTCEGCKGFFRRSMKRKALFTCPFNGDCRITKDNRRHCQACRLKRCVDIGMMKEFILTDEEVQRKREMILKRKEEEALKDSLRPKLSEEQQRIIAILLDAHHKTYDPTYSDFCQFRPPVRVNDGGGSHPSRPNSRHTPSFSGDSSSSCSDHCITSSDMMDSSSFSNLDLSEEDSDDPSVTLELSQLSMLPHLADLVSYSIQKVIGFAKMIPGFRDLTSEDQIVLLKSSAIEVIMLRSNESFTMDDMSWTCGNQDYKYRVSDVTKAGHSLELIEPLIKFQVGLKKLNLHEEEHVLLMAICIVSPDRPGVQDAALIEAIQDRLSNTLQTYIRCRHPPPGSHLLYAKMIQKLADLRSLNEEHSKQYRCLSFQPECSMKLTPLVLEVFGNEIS
# Mus musculus [8] = experiment: Anti-fibrotic effect in CCl4-induced hepatic fibrosis C57BL/6 mouse model assessed as reduction the lesions at 500 ug/kg, po five times a week for 2 weeks by Masson's Trichrome staining based assay; assay type: functional, organism-based; conditions: dose 500.0 µg/kg
# Mus musculus [9] = experiment: Anti-fibrotic effect in improving CCl4-induced hepatic fibrosis C57BL/6 mouse model assessed as decrease in liver to kidney brightness ratio at 500 ug/kg, po five times a week for 2 weeks by qualitative ultrasound imaging analysis; assay type: functional, organism-based; conditions: dose 500.0 µg/kg
# [10] = biological target: T1, Vitamin D3 receptor (Homo sapiens); experiment: Binding affinity to human full-length Vitamin D receptor assessed as relative binding affinity at 1 uM incubated for 2 hrs by fluorescence polarization based competitive binding assay relative to calcipotriol; conditions: filed as agonist
# Mus musculus [11] = experiment: Anti-fibrotic effect in CCl4-induced hepatic fibrosis C57BL/6 mouse model assessed as reduction the lesions at 500 ug/kg, po five times a week for 2 weeks by Hematoxylin-Eosin (H&E) staining based assay; assay type: functional, organism-based; conditions: dose 500.0 µg/kg
# Mus musculus [12] = experiment: Anti-fibrotic effect in CCl4-induced hepatic fibrosis C57BL/6 mouse model assessed as inhibition of serum AST level at 500 ug/kg, po five times a week for 2 weeks; assay type: functional, organism-based; conditions: dose 500.0 µg/kg
# Mus musculus [13] = experiment: Anti-fibrotic effect in CCl4-induced hepatic fibrosis C57BL/6 mouse model assessed as reduction in hepatic fibrosis lesions at 500 ug/kg, po five times a week for 2 weeks by Hematoxylin-Eosin (H&E) staining based assay; assay type: functional, organism-based; conditions: dose 500.0 µg/kg
# [14] = biological target: T1, Vitamin D3 receptor (Homo sapiens); experiment: Agonist activity at Vitamin D receptor in HEK293 cells assessed as receptor transactivation incubated for 48 hrs by dual-luciferase reporter assay; assay type: cell-based; conditions: filed as agonist, dose 0.01-1 µM
# Mus musculus [15] = experiment: Anti-fibrotic effect in improving CCl4-induced hepatic fibrosis C57BL/6 mouse model assessed as uniform liver parenchyma at 500 ug/kg, po five times a week for 2 weeks by qualitative ultrasound imaging analysis; assay type: functional, organism-based; conditions: dose 500.0 µg/kg
# Mus musculus [16] = experiment: Anti-fibrotic effect in CCl4-induced hepatic fibrosis C57BL/6 mouse model assessed as inhibition of collagen deposition at 500 ug/kg, po five times a week for 2 weeks by Masson's Trichrome […] staining based assay; assay type: functional, organism-based; conditions: dose 500.0 µg/kg
# Mus musculus [17] = experiment: Anti-fibrotic effect in CCl4-induced hepatic fibrosis C57BL/6 mouse model assessed as inhibition of serum total bile acid (TBA) level at 500 ug/kg, po five times a week for 2 weeks; assay type: functional, organism-based; conditions: dose 500.0 µg/kg
# Mus musculus [18] = experiment: Anti-fibrotic effect in CCl4-induced hepatic fibrosis C57BL/6 mouse model assessed as inhibition of proliferation of fibrous tissue at 500 ug/kg, po five times a week for 2 weeks by Masson's Trichrome […] staining based assay; assay type: functional, organism-based; conditions: dose 500.0 µg/kg
# [19] = Cytotoxicity against human LX-2 cells by CCK-8 assay; assay type: toxicity, cell-based
# Mus musculus [20] = experiment: Anti-fibrotic effect in CCl4-induced hepatic fibrosis C57BL/6 mouse model assessed as reduction in hepatic fibrosis lesions at 500 ug/kg, po five times a week for 2 weeks by Masson's Trichrome staining based assay; assay type: functional, organism-based; conditions: dose 500.0 µg/kg
# Mus musculus [21] = experiment: Anti-fibrotic effect in CCl4-induced hepatic fibrosis C57BL/6 mouse model assessed as inhibition of serum ALT level at 500 ug/kg, po five times a week for 2 weeks; assay type: functional, organism-based; conditions: dose 500.0 µg/kg
# Mus musculus [22] = experiment: Anti-fibrotic effect in CCl4-induced hepatic fibrosis C57BL/6 mouse model assessed as decrease in inflammatory cell infiltration at 500 ug/kg, po five times a week for 2 weeks by Hematoxylin-Eosin (H&E) staining based assay; assay type: functional, organism-based; conditions: dose 500.0 µg/kg
structure (smiles),measurement,setting,value
C=C1/C(=C\C=C2/CCC[C@]3(C)[C@@H]([C@H](C)/C=C/[C@@H](O)C4CC4)CC[C@@H]23)C[C@@H](O)C[C@@H]1O [CALCIPOTRIENE],Activity,[1],Non-Toxic
CCC(Oc1ccc(CO)c(CO)c1)c1cccc(OCCCC(O)(CC)CC)c1 (configuration not stated),inhibition,LX-2 [2],Active
same,inhibition,LX-2 [3],Active
same,Activity,Mus musculus [4],Active
same,Activity,Mus musculus [5],Active
same,Activity,Mus musculus [6],Active
same,Activity,[7],Active
same,Activity,Mus musculus [8],Active
same,Activity,Mus musculus [9],Active
same,RBA,[10],54.3%
same,Activity,Mus musculus [11],Active
same,Activity,Mus musculus [12],Active
same,Activity,Mus musculus [13],Active
same,Activity,[14],Dose-Dependent Effect
same,Activity,Mus musculus [15],Active
same,Activity,Mus musculus [16],Active
same,Activity,Mus musculus [17],Active
same,Activity,Mus musculus [18],Active
same,IC50,[19],> 30 µM
same,Activity,Mus musculus [20],Active
same,Activity,Mus musculus [21],Active
same,Activity,Mus musculus [22],Active

# — ChEMBL document CHEMBL5620415, “Design, synthesis and anti-hepatic fibrosis activity of novel diphenyl vitamin D receptor agonists” (Eur J Med Chem, 2023)
